Assay results as given in ChEMBL document CHEMBL5223077, “Recent advances on synthesis and biological activities of aurones” (Bioorg Med Chem, 2021).
≈ marks a conversion by molar mass, not a printed value.

Tests used:
HT-29 = experiment: Antiproliferative activity against human HT-29 cells assessed as cell growth inhibition; type: functional, cell-based
HL-60 = experiment: Antiproliferative activity against human HL-60 cells assessed as cell growth inhibition; type: functional, cell-based
[1] = Antioxidant activity assessed as DPPH radical scavenging activity; type: functional
[2] = target: T1, Nitric oxide synthase, inducible (Mus musculus, UniProt P29477); experiment: Inhibition of iNOS expression in LPS-induced mouse RAW264.7 cells; type: cell-based
T1 sequence (P29477 whole entry): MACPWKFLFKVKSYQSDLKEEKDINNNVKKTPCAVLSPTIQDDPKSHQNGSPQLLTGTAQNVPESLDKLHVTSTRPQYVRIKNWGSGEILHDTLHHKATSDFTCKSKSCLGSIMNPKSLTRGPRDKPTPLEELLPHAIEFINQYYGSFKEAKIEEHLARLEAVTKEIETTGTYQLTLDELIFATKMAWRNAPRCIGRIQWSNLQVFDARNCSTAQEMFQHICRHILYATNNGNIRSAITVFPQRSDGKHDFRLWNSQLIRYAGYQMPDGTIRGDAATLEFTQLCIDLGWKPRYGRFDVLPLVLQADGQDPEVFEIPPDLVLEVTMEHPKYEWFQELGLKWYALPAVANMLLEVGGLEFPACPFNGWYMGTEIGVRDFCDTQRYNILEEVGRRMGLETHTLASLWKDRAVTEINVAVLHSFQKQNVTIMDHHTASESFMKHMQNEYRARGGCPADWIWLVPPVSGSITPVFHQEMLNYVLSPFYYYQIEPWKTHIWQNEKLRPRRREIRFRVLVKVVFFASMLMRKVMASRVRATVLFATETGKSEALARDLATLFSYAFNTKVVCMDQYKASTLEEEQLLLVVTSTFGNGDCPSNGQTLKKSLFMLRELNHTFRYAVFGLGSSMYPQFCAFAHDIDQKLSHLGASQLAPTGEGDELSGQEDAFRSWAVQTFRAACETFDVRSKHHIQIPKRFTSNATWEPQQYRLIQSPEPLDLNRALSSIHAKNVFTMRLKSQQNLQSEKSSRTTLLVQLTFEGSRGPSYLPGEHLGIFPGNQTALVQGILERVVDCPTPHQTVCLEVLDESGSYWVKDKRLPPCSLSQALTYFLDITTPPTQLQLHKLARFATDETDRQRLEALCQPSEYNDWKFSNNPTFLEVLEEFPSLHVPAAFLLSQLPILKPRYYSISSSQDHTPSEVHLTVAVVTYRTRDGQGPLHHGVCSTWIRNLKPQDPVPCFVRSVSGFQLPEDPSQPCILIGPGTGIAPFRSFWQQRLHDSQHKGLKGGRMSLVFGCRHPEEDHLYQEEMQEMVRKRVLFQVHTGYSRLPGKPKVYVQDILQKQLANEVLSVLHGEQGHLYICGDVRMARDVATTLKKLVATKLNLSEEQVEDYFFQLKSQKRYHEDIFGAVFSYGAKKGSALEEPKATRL

MES-SA/Dx5 = experiment: Antiproliferative activity against human MES-SA/Dx5 cells assessed as cell growth inhibition; type: functional, cell-based
MES-SA = experiment: Antiproliferative activity against human MES-SA cells assessed as cell growth inhibition; type: functional, cell-based
[3] = Antioxidant activity assessed as DPPH radical scavenging activity relative to control; type: functional; parameters: concentration or dose not given beside the values
[4] = test system: Mycobacterium tuberculosis; experiment: Antimycobacterial activity against Mycobacterium tuberculosis; type: functional
Tubulin = experiment: Inhibition of tubulin (unknown origin); type: protein-complex assay, Homo sapiens
Plasmodium falciparum [5] = experiment: Antiplasmodial activity against Plasmodium falciparum 3D7; type: functional, organism-based
K562 = experiment: Antiproliferative activity against human K562 cells assessed as cell growth inhibition at 10 uM relative to control; type: functional, cell-based
MDA-MB-435 = experiment: Antiproliferative activity against human MDA-MB-435 cells assessed as cell growth inhibition at 10 uM relative to control; type: functional, cell-based
[6] = Antioxidant activity assessed as ABTS radical scavenging activity; type: functional
Maltase-glucoamylase = Maltase-glucoamylase (Homo sapiens, UniProt O43451); experiment: Inhibition of alpha-glucosidase (unknown origin)
Bacillus subtilis = experiment: Antimicrobial activity against Bacillus subtilis assessed as inhibition of bacterial growth; type: functional
Fusarium oxysporum = experiment: Antifungal activity against Fusarium oxysporum assessed as inhibition of fungal growth; type: functional
Staphylococcus aureus = experiment: Antimicrobial activity against Staphylococcus aureus assessed as inhibition of bacterial growth; type: functional
[7] = test system: Mycolicibacterium smegmatis; experiment: Anti-mycobacterial activity against Mycobacterium smegmatis assessed as inhibition of bacterial growth; type: functional
Candida albicans = experiment: Antifungal activity against Candida albicans assessed as inhibition of fungal growth; type: functional
Plasmodium falciparum [8] = experiment: Antiplasmodial activity against Plasmodium falciparum D6; type: functional, organism-based
Plasmodium falciparum [9] = experiment: Antiplasmodial activity against Plasmodium falciparum W2; type: functional, organism-based
[10] = Inhibition of CDK5/p25 (unknown origin); parameters: species or system Homo sapiens

Sequence of Maltase-glucoamylase (O43451 whole entry): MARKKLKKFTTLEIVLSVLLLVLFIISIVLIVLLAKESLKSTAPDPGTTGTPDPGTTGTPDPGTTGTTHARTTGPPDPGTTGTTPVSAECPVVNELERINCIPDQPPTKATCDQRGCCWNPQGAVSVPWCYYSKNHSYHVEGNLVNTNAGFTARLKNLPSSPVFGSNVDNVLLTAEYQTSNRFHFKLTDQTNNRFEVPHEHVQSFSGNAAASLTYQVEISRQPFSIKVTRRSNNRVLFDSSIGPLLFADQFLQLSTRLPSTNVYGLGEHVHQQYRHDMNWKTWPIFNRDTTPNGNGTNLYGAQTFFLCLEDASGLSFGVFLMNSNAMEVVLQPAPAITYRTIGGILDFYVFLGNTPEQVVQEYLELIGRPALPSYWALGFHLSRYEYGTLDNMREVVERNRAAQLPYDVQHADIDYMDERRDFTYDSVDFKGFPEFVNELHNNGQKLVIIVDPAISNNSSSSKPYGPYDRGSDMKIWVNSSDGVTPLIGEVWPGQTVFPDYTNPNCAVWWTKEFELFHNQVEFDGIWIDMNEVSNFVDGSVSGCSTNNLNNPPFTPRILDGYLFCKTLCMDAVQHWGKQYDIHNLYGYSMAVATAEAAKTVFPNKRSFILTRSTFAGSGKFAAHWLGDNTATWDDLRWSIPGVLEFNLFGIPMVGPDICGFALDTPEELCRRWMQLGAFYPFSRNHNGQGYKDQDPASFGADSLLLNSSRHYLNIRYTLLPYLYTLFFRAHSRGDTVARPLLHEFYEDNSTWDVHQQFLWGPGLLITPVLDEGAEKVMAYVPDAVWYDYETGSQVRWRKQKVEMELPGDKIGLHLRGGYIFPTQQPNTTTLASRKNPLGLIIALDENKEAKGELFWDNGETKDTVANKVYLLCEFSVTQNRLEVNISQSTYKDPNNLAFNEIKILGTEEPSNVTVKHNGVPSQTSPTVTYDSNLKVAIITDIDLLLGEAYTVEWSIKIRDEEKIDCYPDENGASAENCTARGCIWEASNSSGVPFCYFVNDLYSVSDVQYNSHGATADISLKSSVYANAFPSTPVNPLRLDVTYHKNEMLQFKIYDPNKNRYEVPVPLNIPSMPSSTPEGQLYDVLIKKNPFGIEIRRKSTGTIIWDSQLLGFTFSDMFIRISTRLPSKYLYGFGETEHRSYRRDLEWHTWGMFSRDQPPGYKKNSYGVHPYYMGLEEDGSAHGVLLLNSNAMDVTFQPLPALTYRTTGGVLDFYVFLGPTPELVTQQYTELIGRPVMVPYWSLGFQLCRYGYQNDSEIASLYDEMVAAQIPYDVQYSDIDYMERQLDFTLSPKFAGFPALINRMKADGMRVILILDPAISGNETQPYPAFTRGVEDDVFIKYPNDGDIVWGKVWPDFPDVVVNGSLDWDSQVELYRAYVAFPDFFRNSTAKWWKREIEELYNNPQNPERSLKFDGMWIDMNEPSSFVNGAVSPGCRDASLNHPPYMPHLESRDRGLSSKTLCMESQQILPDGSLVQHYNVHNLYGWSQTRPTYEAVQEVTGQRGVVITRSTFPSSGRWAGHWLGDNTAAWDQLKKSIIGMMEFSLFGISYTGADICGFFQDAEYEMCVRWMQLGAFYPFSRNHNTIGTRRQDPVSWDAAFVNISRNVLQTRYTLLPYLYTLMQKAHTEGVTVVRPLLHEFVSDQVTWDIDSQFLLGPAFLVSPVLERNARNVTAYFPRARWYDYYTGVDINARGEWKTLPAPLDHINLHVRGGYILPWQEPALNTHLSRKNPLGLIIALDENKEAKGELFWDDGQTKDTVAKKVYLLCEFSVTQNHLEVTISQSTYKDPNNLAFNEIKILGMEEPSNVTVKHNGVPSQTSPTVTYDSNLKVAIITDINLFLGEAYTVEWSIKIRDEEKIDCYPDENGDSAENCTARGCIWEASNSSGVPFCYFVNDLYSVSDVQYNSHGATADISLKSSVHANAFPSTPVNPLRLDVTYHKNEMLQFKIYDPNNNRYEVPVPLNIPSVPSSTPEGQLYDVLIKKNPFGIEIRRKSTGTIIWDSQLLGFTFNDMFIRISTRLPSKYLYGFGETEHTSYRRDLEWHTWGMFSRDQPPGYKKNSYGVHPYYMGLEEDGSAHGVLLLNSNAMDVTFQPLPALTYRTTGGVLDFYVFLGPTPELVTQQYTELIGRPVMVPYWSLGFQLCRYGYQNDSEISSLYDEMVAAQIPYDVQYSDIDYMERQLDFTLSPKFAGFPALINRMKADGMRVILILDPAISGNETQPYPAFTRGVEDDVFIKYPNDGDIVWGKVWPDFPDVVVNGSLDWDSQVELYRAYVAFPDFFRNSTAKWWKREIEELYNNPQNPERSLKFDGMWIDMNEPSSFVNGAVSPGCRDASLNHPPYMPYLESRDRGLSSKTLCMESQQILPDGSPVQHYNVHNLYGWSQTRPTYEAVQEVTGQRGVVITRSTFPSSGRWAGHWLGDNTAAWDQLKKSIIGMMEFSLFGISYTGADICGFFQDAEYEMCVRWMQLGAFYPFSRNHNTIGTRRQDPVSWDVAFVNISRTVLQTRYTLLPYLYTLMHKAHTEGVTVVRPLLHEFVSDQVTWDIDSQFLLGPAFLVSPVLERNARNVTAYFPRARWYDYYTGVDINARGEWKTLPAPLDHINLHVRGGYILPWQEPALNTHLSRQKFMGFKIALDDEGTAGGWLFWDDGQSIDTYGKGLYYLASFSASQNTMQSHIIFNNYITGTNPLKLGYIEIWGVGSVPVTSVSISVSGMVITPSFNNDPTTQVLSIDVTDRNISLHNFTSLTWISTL

CCOc1ccc2c(c1)O/C(=C\c1ccc(C(F)(F)F)cc1)C2=O
IC50 (HT-29): 9.12 µM | IC50 (HL-60): 1.65 µM

O=C1/C(=C/c2ccc(C(F)(F)F)cc2)Oc2cc(OCc3ccccc3)ccc21
IC50 (HT-29): 4.12 µM | IC50 (HL-60): 3.46 µM

COc1ccc2c(c1)O/C(=C\c1cc(O)ccc1O)C2=O
IC50 [1]: 35.9 µM

CCCCCCCOc1ccc2c(c1)O/C(=C\c1ccc(C(F)(F)F)cc1)C2=O
IC50 (HT-29): 4.32 µM | IC50 (HL-60): 2.67 µM

CC1(C)CCc2c(ccc3c2O/C(=C\c2ccccn2)C3=O)O1
IC50 [2]: 8.41 µM

COc1cc2c(c(OC)c1)C(=O)/C(=C/c1c(C)c(C)cc(C)c1C)N2
IC50 (MES-SA/Dx5): 19.5 µM | IC50 (MES-SA): 9.2 µM

COc1cc(/C=C2\Oc3c(ccc(OC)c3OC)C2=O)ccc1O
Activity [3]: 32.8%

CC(=O)N1/C(=C\c2ccc(-c3cncc4ccccc34)cc2)C(=O)c2ccccc21
MIC99 [4]: 0.74 µM (≈ 0.289 µg/mL)

COc1ccc2c(c1)O/C(=C\c1ccc(C(F)(F)F)cc1)C2=O
IC50 (HT-29): 5.9 µM | IC50 (HL-60): 2.59 µM

COc1cc(/C=C2\Oc3c(ccc(O)c3OC)C2=O)ccc1O
Activity [3]: 47.4%

O=C1/C(=C/c2ccncc2)Oc2cc(OCc3c(Cl)cccc3Cl)ccc21
IC50 (Tubulin): 66 µM

COc1ccc(/C=C2\Oc3c(ccc(OC)c3OC)C2=O)cc1O
Activity [3]: 8.9%

COc1cc(/C=C2\Oc3c(ccc4c3CCC(C)(C)O4)C2=O)ccc1O
IC50 [2]: 5.22 µM

O=C1/C(=C/c2ccc(Cl)cc2)Oc2ccccc21
IC50 [1]: 92 µM

O=C1c2ccccc2OC1(O)Cc1ccc(Cl)cc1 (centres undefined)
IC50 [1]: 54 µM

CCCOc1c(Br)cc(/C=C2\Oc3cc(OC)cc(OC)c3C2=O)cc1OC
IC50 (Plasmodium falciparum [5]): 2.3 µM

CC(=O)N1/C(=C\c2ccc(-c3ccsc3)cc2)C(=O)c2ccccc21
MIC99 [4]: 0.6 µM (≈ 0.207 µg/mL)

C#Cc1cccc(Nc2ncnc3cc(OCCOC)c(OCCOC)cc23)c1 [ERLOTINIB]
IC50 (K562): 3.29 µM | IC50 (MDA-MB-435): 7.05 µM

CCn1cc(/C=C2\Oc3cc(OCC#N)cc(O)c3C2=O)c2cc(OC)ccc21
IC50 (Tubulin): 58.6 µM

COc1ccc2c(c1OC)O/C(=C\c1ccc(O)c(O)c1)C2=O
Activity [3]: 85.8%

COc1c(O)ccc2c1O/C(=C\c1ccc(O)c(O)c1)C2=O
Activity [3]: 84.2%

COc1cc(/C=C2\Oc3cc4occc4c(OC)c3C2=O)ccc1OCC(=O)Nc1ccccc1
inhibition of growth at 10 µM (K562; dose 10 µM, read-out: GI): 70.3% | IC50 (MDA-MB-435): 7.05 µM | inhibition of growth at 10 µM (MDA-MB-435; dose 10 µM, read-out: GI): 79.6%

COc1cc2c(c(OC)c1)C(=O)/C(=C/c1ccc(C(C)C)cc1)N2
IC50 (MES-SA/Dx5): 5.8 µM | IC50 (MES-SA): 17.1 µM

CC1(C)CCc2c(ccc3c2O/C(=C\c2ccccc2)C3=O)O1
IC50 [2]: 12.2 µM

COc1cc(OC)c(C2=CCN(Cc3ccccc3)CC2)c2c1C(=O)/C(=C/c1ccc(F)cc1)O2
IC50 [6]: 71.7 µM

CCOc1c(Br)cc(/C=C2\Oc3cc(OC)cc(OC)c3C2=O)cc1OC
IC50 (Plasmodium falciparum [5]): 7.27 µM

O=C1/C(=C/c2ccc(C(F)(F)F)cc2)Oc2cc(O)ccc21
IC50 (HT-29): 8.9 µM | IC50 (HL-60): 1.54 µM

CC(=O)N1/C(=C\c2ccc(Br)cc2)C(=O)c2ccccc21
MIC99 [4]: 0.37 µM (≈ 0.127 µg/mL)

CC1(C)CCc2c(ccc3c2O/C(=C\c2ccc(O)c(O)c2)C3=O)O1
IC50 [2]: 8.09 µM

CC(C)=CCc1c(O)ccc2c1O/C(=C\c1ccc(O)cc1)C2=O
IC50 (Maltase-glucoamylase): 73.8 µM

Cc1cc(C)c2cc(/C=C3\Oc4cc(O)cc(O)c4C3=O)c(Cl)nc2c1
MIC (Bacillus subtilis): 156 µg/mL (≈ 424 µM) | MIC (Fusarium oxysporum): 313 µg/mL (≈ 851 µM) | MIC (Staphylococcus aureus): 2500 µg/mL (≈ 6800 µM) | MIC [7]: 78 µg/mL (≈ 212 µM) | MIC (Candida albicans): 156 µg/mL (≈ 424 µM)

O=C1/C(=C/c2cc3cc(Br)ccc3nc2Cl)Oc2cc(O)cc(O)c21
MIC (Bacillus subtilis): 313 µg/mL (≈ 748 µM) | MIC (Staphylococcus aureus): 1250 µg/mL (≈ 2990 µM) | MIC (Candida albicans): 78 µg/mL (≈ 186 µM)

COc1cc2c(c(OC)c1)C(=O)/C(=C/c1ccc(C(C)(C)C)cc1)N2
IC50 (MES-SA/Dx5): 3.4 µM | IC50 (MES-SA): 11.9 µM

O=C1/C(=C/c2cc3ccccc3nc2Cl)Oc2cc(O)cc(O)c21
MIC (Bacillus subtilis): 20 µg/mL (≈ 58.9 µM) | MIC (Fusarium oxysporum): 625 µg/mL (≈ 1840 µM) | MIC (Staphylococcus aureus): 1250 µg/mL (≈ 3680 µM) | MIC [7]: 625 µg/mL (≈ 1840 µM)

CC1(C)CCc2c(ccc3c2O/C(=C\c2cccc(O)c2)C3=O)O1
IC50 [2]: 10.8 µM

C=CCOc1ccc2c(c1)O/C(=C\c1ccc(C(F)(F)F)cc1)C2=O
IC50 (HT-29): 4.12 µM | IC50 (HL-60): 3.53 µM

Cc1ccc(/C=C2\Oc3c(ccc4c3CCC(C)(C)O4)C2=O)o1
IC50 [2]: 11.9 µM

COc1cc(OC)c2c(c1)O/C(=C\c1ccc(OC)c(OC)c1)C2=O [4,6,3',4'-TETRAMETHOXYAURONE]
IC50 (Plasmodium falciparum [5]): 7.82 µM | IC50 (Plasmodium falciparum [8]): 13.9 µM | IC50 (Plasmodium falciparum [9]): 13.9 µM

Cc1ccc2cc(/C=C3\Oc4cc(O)cc(O)c4C3=O)c(Cl)nc2c1C
MIC (Bacillus subtilis): 625 µg/mL (≈ 1700 µM) | MIC (Staphylococcus aureus): 1250 µg/mL (≈ 3400 µM)

CCCCc1ccc(/C=C2\Nc3cc(OC)cc(OC)c3C2=O)cc1
IC50 (MES-SA/Dx5): 3.7 µM | IC50 (MES-SA): 17.8 µM

O=C1/C(=C/c2ccc(O)c(O)c2)Oc2cc(O)cc(O)c21 [AUREUSIDIN]
IC50 [10]: 4.81 µM

COc1cc(OC)c(C2=CCN(Cc3ccccc3)CC2)c2c1C(=O)/C(=C/c1ccc(Br)cc1)O2
IC50 [6]: 87 µM

COc1cc(OC)c2c(c1)O/C(=C\c1ccccc1)C2=O
IC50 (Plasmodium falciparum [8]): 16.9 µM | IC50 (Plasmodium falciparum [9]): 16.9 µM
